Laboratory results from article PMC4240912, “Multifaceted interplay between lipophilicity, protein interaction and luminescence parameters of non-intercalative ruthenium(II) polypyridyl complexes controlling cellular imaging and cytotoxic properties” (Journal of Biological Inorganic Chemistry, 2014).
Like-named read-outs stand apart in the source and are kept apart here.

Key:
[1] = tested on: FVB mouse lung microvascular endothelial cells (MLuMEC FVB); assay: Alamar Blue cell viability, MLuMEC; type: cell-based; details: 24 h
Experimental: (§1) FVB mouse lung microvascular endothelial cells (MLuMEC FVB) and murine endothelial cells isolated from aorta-gonad-mesonephros (AGM) region of 10.5 dpc embryos (MAgEC 10.5) were cultured in OptiMEM with Glutamax-I (Gibco Invitrogen) supplemented with 2% fetal bovine serum (FBS), 0.4% gentamycin and 0.2% fungizone. […]
(§2) 10% FBS, 1% peniciline and streptomycin and 0.2% fungizone. Cells were routinely cultured at 37 °C in a humidified incubator in 5% CO2 atmosphere.
(§3) Cell viability was measured using Alamar Blue assay. Cells were seeded on 96 wells plate with density of 1 × 10^4 cells per cm2 and cultured for 1 day. Then cells were incubated with various concentrations of compounds in medium with or without 2% FBS for 24 and 48 h under normoxic and hypoxic conditions in the darkness. Next cells were washed with PBS and incubated in Alamar Blue solution for 3 h. The cell viability was quantified at 605 nm using 560 nm excitation light (VICTOR 3V multilabel plate reader PerkinElmer or Tecan Infinite200 Reader). Experiments were performed in triplicates and each experiment was performed at least three times to get the mean values ± standard derivation. The viability was calculated with regard to the untreated cells control. The IC50 values were determined using Hill equation (Origin 9.0). […]

[2] = tested on: 4T1 breast cancer cell line; assay: Alamar Blue cell viability, 4T1; type: cell-based; details: 4T1, 24 h incubation
Experimental: 4T1 breast cancer cell line was cultured in RPMI-1640 (Gibco Invitrogen) with 10 % fetal bovine serum (FBS, the bovine serum albumin is a major component), 1 % penicillin and streptomycin and 0.2 % fungizone. Cells were routinely cultured at 37 °C in a humidified incubator in 5 % CO2 atmosphere. Cell viability was measured using Alamar Blue assay. Cells were seeded on 96-well plate with density of 10^4 cells per cm^2 and cultured for 24 h in medium with or without 2 % serum. Then cells were incubated with various concentrations of ruthenium compounds for 24 h in the dark. All used ruthenium complexes were freshly diluted in DMSO and then added to the appropriate medium to obtain the applied concentrations. The final DMSO concentration was kept constant at 0.05 % (v/v). Next cells were washed with PBS and incubated in AlamarBlue solution (21 times diluted in PBS) for 3 h. Alamar Blue test is based on the reduction of blue and non-fluorescent subtract (resazurin) to a pink and highly fluorescent product (resorufin) by the alive cells. Extract mechanism of the reduction is still unknown, but it is postulated that reduction occurs by mitochondrial or cytoplasmic enzymes, such as NADH dehydrogenase or diaphorase. It is still not known whether this process occurs intracellularly, at the plasma membrane surface or just in the medium as a chemical reaction. The cell viability was quantified at 605 nm using 560 nm excitation light (VICTOR 3V multilabel plate readers, PerkinElmer). Experiments were performed in triplicates and each experiment was performed at least three times to get the mean values ± standard deviation. The viability was calculated with regard to the untreated cells control. The IC50 values were determined using Hill equation (Origin 9.0): y=y0+y100-y0c^H/IC50^H+c^H

[3] = tested on: Human lung adenocarcinoma epithelial cell line (A549); assay: Alamar Blue cell viability, A549; type: cell-based; details: A549, 24 h
Experimental: as §2, §3

[4] = tested on: murine endothelial cells isolated from aorta-gonad-mesonephros (AGM) region of 10.5 dpc embryos (MAgEC 10.5); assay: Alamar Blue cell viability, MAgEC 10.5; type: cell-based; details: MAgEC 10.5, 24 h
Experimental: as §1, §2, §3

[5] = aqueous solution, cited from earlier work

Compound | IC50 ([1]; with serum (2%)) [µM] | IC50 ([1]; without serum) [µM] | IC50 ([2]; medium with serum (2 %)) [µM] | IC50 ([2]; medium without serum) [µM] | IC50 ([3]; with serum (2%)) [µM] | IC50 ([3]; without serum) [µM] | IC50 ([4]; with serum (2%)) [µM] | IC50 ([4]; without serum) [µM] | Φ, quantum yield of luminescence (standard) ([5]; air-equilibrium conditions, ref [14]) | Φ, quantum yield of luminescence (standard) ([5]; deoxygenated conditions, ref [20])
N.N.[Cl][Pt][Cl] [Cisplatin, reference compound] | 14.5 ± 1.4 | 24.6 ± 2.89 | 59.8 ± 8.32 | 73 ± 14.9 | 71.3 ± 22.9 | 126 ± 30.5 | 8.75 ± 0.2 | 9.38 ± 0.67 | – | –
[Ru+2].c1ccc(-c2ccccn2)nc1.c1ccc(-c2ccccn2)nc1.c1ccc(-c2ccccn2)nc1 [[Ru(bpy)3]^2+, reference compound] | – | – | – | – | – | – | – | – | 0.028 | 0.042
